{"source": "patent US5686065A", "about": "“Topical siloxane sunscreen compositions having enhanced performance and safety” (Special Advanced Biomaterials, Inc., priority 1991, dated 1997)", "key": {"microbes on skin": {"test_system": "microbes on skin", "settings": "general statement, no test given; cited from earlier work"}, "[1]": {"procedure": "Ten microliters of each of (a), (b), (c), (d), 2-ethyl-1,3-hexanediol (EHD), N,N-diethyl-m-toluamide (DT), or N,N-diethoxy-m-toluamide (DOT) were applied to separate 7 cm^2 patches of greentree python snake skin once daily for 3 days. At the end of the application period, the patches were washed five times each day for three days with 20 μl of 50/50 ethanol/water using a 3 cm diameter cylinder to enable collection of the washings. The amount of insect repellent washed off was quantified using reverse phase HPLC, C^14 radiocounting or AT/FTIR. The percentage remaining bound after 5, 10, and 15 washes was designated as 100×(amount applied-amount washed off)/(amount applied) and was averaged for 5 samples."}, "[2]": {"assay": "Humectant remaining bound to snake skin after washing", "set-up": "species or system greentree python snake", "procedure": "In the case of (b), 10 μl of ETS was also applied immediately after solution (b)."}, "S. aureus [3]": {"test_system": "S. aureus", "assay": "Zone of inhibition on agar of treated snake skin patches", "format": "cell-based", "settings": "24 hours", "procedure": "The patches of snake skin were assayed for antimicrobial activity using 3 methods: (1) zone of antimicrobial activity on agar due to diffusion, (2) quantitation of microbial growth in solution mixing with patch, and (3) quantitation of microbial growth on human skin. The first method was a standard zone of inhibition study in which the bacteria was streaked onto an agar plate, the disk containing the test material was placed on the plate, and then the bacteria were allowed to grow for 24 hours.\n(§1) Each result was averaged for samples."}, "S. aureus [4]": {"test_system": "S. aureus", "assay": "Quantitation of microbial growth in solution mixing with treated snake skin patch", "format": "cell-based", "settings": "for Microbe Growth/Solution after 5 washes / Microbe Growth/Solution after 15 washes / Microbe Growth/Solution after 10 washes: S. aureus, treated snake skin, 24 hours", "procedure": "In the second test, tubes containing liquid growth medium were inoculated with bacteria, and then the test disk was placed in the tube. The bacteria was allowed to grow for 24 hours and then the number of bacteria per ml was quantified either by light reflectance or by removing a small volume and streaking on an agar plate. The latter method was followed by allowing the bacteria to grow and then counting the colonies (Table 7).\nas §1"}, "[5]": {"test_system": "normal skin bacteria (results for S. aureus reported)", "assay": "Quantitation of microbial growth on human skin (expanded flora)", "format": "in vivo", "procedure": "The third test involved growing normal skin bacteria by covering the skin with an occlusive dressing such as Saran Wrap (this is referred to as expanding the flora). Prior to expanding the flora, the skin test sites were treated with the test or control solutions as described above. The flora was then expanded for 24 hours, followed by quantitating the bacteria growth. This was done by washing an area of skin with liquid growth medium and spreading the washing on an agar plate. After the bacteria grew the number colonies were counted (Table 8).\nas §1"}, "[6]": {"settings": "by infants; general statement; cited from earlier work"}, "[7]": {"set-up": "species or system greentree python snake", "procedure": "Ten microliters (a), (b), (c), (d), AT or ethanol/cyclomethicone vehicle was applied separately to a 7 cm^2 patch of greentree python snake skin once daily for 3 days or to a 7 cm^2 patch of shaved rabbit skin. At the end of the application period, the patches were washed five times each day for three days with 20 μl of 50/50 ethanol/water using a 3 cm diameter cylinder to enable collection of the washings. The amount of skin protectant washed off was quantitated using reverse phase HPLC, C^14 radiocounting or AT/FTIR. The percentage remaining bound after 5, 10, and 15 washes was designated as 100×(amount applied-amount washed off)/(amount applied) and was averaged for the 5 samples."}, "[8]": {"assay": "Modified Draise test: erythema by salicylic acid on treated rabbit skin", "format": "in vivo", "settings": "in words, from Table 10", "procedure": "The skin test on rabbits was essentially a modified Draise test for skin in which unabraded skin was studied on partially occluded sites. The skin irritation study was started following skin treatment by one of the test compounds above. In this test, after the compound was applied to the skin, a known skin irritant, 10 μl of 5% salicylic acid in a 50/50 by volume mixture of ethanol/water, was applied once a day for 3 days. The skin was rated for erythema using the scale of 0--no erythema to 4--severe erythema."}, "[9]": {"settings": "snake skin, insect repellent, 50/50 ethanol/water washes"}, "[10]": {"settings": "human skin, flora expanded 24 hours, S. aureus"}}, "note": "Read-outs that look alike come from different tables or passages of the source."}
{"compound": "[H]/N=C(\\N/C(=N/[H])NCCCCCCNC(=N)NC(=N)Nc1ccc(Cl)cc1)Nc1ccc(Cl)cc1", "note": "[Chlorhexidene, Chlorhexidine]", "values": [{"measurement": "antimicrobial effectiveness on skin", "setting": "microbes on skin", "value": "very effective"}, {"measurement": "toxicity / side effects of topical antimicrobial", "setting": "microbes on skin", "value": "causes severe skin drying"}]}
{"compound": "CCON(OCC)C(=O)c1cccc(C)c1", "note": "[DOT, N,N-diethoxy-m-toluamide]", "values": [{"measurement": "% bound after 5 washes", "setting": "[1]", "value": 6, "unit": "%"}, {"measurement": "% bound after 10 washes", "setting": "[1]", "value": 1, "unit": "%"}, {"measurement": "% bound after 15 washes", "setting": "[1]", "value": 1, "unit": "%"}]}
{"compound": "CCN(CC)C(=O)c1cccc(C)c1", "note": "[DT, N,N-diethyl-m-toluamide]", "values": [{"measurement": "% bound after 5 washes", "setting": "[1]; [9]", "value": 10, "unit": "%"}, {"measurement": "% bound after 10 washes", "setting": "[1]; [9]", "value": 5, "unit": "%"}, {"measurement": "% bound after 15 washes", "setting": "[1]; [9]", "value": 2, "unit": "%"}]}
{"compound": "CCCC(O)C(CC)CO", "note": "(centres unmarked) [EHD, 2-ethyl-1,3-hexanediol]", "values": [{"measurement": "% bound after 5 washes", "setting": "[1]", "value": 7, "unit": "%"}, {"measurement": "% bound after 10 washes", "setting": "[1]", "value": 2, "unit": "%"}, {"measurement": "% bound after 15 washes", "setting": "[1]", "value": 2, "unit": "%"}]}
{"compound": "OCC(O)CO", "note": "[GL, Glycerol]", "values": [{"measurement": "% bound after 5 washes", "setting": "[2]", "value": 1, "unit": "%"}, {"measurement": "% bound after 10 washes", "setting": "[2]", "value": 0, "unit": "%"}, {"measurement": "% bound after 15 washes", "setting": "[2]", "value": 0, "unit": "%"}]}
{"compound": "Oc1c(Cl)cc(Cl)c(Cl)c1Cc1c(O)c(Cl)cc(Cl)c1Cl", "note": "[HCP, Hexachlorophene]", "values": [{"measurement": "Zone of Inhibition after 5 washes", "setting": "S. aureus [3]", "value": 18, "unit": "mm"}, {"measurement": "Zone of Inhibition after 10 washes", "setting": "S. aureus [3]", "value": 0, "unit": "mm"}, {"measurement": "Zone of Inhibition after 15 washes", "setting": "S. aureus [3]", "value": 0, "unit": "mm"}, {"measurement": "Microbe Growth/Solution after 5 washes", "setting": "S. aureus [4]", "value": 0, "unit": "CFU"}, {"measurement": "Microbe Growth/Solution after 15 washes", "setting": "S. aureus [4]", "value": "10^3 CFU"}, {"measurement": "Microbe Growth/on Skin after 0 washes", "setting": "[5]; [10]", "value": 0, "unit": "CFU"}, {"measurement": "Microbe Growth/on Skin after 5 washes", "setting": "[5]; [10]", "value": "10^2 CFU"}, {"measurement": "Microbe Growth/on Skin after 15 washes", "setting": "[5]; [10]", "value": "10^5 CFU"}, {"measurement": "absorption", "setting": "[6]", "value": "rapidly absorbed by infants"}, {"measurement": "toxicity / side effects of topical antimicrobial", "setting": "microbes on skin", "value": "highly toxic"}]}
{"compound": "O=C(O)CC(O)C(=O)O", "note": "(centres unmarked) [MA, Malic acid]", "values": [{"measurement": "Zone of Inhibition after 5 washes", "setting": "S. aureus [3]", "value": 15, "unit": "mm"}, {"measurement": "Zone of Inhibition after 10 washes", "setting": "S. aureus [3]", "value": 0, "unit": "mm"}, {"measurement": "Zone of Inhibition after 15 washes", "setting": "S. aureus [3]", "value": 0, "unit": "mm"}, {"measurement": "Microbe Growth/Solution after 5 washes", "setting": "S. aureus [4]", "value": 0, "unit": "CFU"}, {"measurement": "Microbe Growth/Solution after 10 washes", "setting": "S. aureus [4]", "value": "10^2 CFU"}, {"measurement": "Microbe Growth/Solution after 15 washes", "setting": "S. aureus [4]", "value": "10^3 CFU"}, {"measurement": "Microbe Growth/on Skin after 5 washes", "setting": "[5]; [10]", "value": "10^5 CFU"}, {"measurement": "Microbe Growth/on Skin after 15 washes", "setting": "[5]; [10]", "value": "10^5 CFU"}]}
{"compound": "[O-][n+]1ccccc1S", "note": "[PYR, Pyrithione]", "values": [{"measurement": "Zone of Inhibition after 5 washes", "setting": "S. aureus [3]", "value": 10, "unit": "mm"}, {"measurement": "Zone of Inhibition after 10 washes", "setting": "S. aureus [3]", "value": 0, "unit": "mm"}, {"measurement": "Zone of Inhibition after 15 washes", "setting": "S. aureus [3]", "value": 0, "unit": "mm"}, {"measurement": "Microbe Growth/Solution after 5 washes", "setting": "S. aureus [4]", "value": 0, "unit": "CFU"}, {"measurement": "Microbe Growth/Solution after 10 washes", "setting": "S. aureus [4]", "value": "10^2 CFU"}, {"measurement": "Microbe Growth/Solution after 15 washes", "setting": "S. aureus [4]", "value": "10^3 CFU"}, {"measurement": "Microbe Growth/on Skin after 5 washes", "setting": "[5]; [10]", "value": "10^4 CFU"}, {"measurement": "Microbe Growth/on Skin after 15 washes", "setting": "[5]; [10]", "value": "10^5 CFU"}]}
{"compound": "NC(=O)NC1NC(=O)NC1=O", "note": "(centres unmarked) [allantoin, Allantoin]", "values": [{"measurement": "adherence to / retention on skin", "setting": "[7]", "value": "enhanced when applied with a polymerizing siloxane"}, {"measurement": "protection from skin erythema by salicylic acid", "setting": "[8]", "value": "does provide some protection from skin erythema by salicylic acid, this protection is lost if the skin is washed"}]}
{"compound": "CCO[Si](CCCN)(OCC)OCC", "note": "[aminofunctional silane coupling agent, Aminopropyltriethoxysilane]", "values": [{"measurement": "microbiocidal activity", "setting": "S. aureus [4]; in words, from Table 7", "value": "not bactericidal"}, {"measurement": "antibacterial activity on human skin", "setting": "[5]; in words, from Table 8", "value": "inhibitory activity on bacterial growth on human skin"}, {"measurement": "microbial inhibitory activity on the skin", "setting": "[5]; in words, no data at the place", "value": "substantial microbial inhibitory activity on the skin"}]}
{"compound": "O=C(Nc1ccc(Cl)cc1)Nc1ccc(Cl)c(Cl)c1", "note": "[trichlorocarban]", "values": [{"measurement": "antimicrobial effectiveness on skin", "setting": "microbes on skin", "value": "relatively ineffective"}]}
{"compound": "Oc1cc(Cl)ccc1Oc1ccc(Cl)cc1Cl", "note": "[triclosan, Triclosan]", "values": [{"measurement": "antimicrobial effectiveness on skin", "setting": "microbes on skin", "value": "relatively ineffective"}]}
{"compound": "Hyaluronic acid [HA]", "values": [{"measurement": "% bound after 5 washes", "setting": "[2]", "value": 5, "unit": "%"}, {"measurement": "% bound after 10 washes", "setting": "[2]", "value": 1, "unit": "%"}, {"measurement": "% bound after 15 washes", "setting": "[2]", "value": 0, "unit": "%"}]}
{"compound": "allantion-mono(triethoxy)siloxy ester [Example 6 (d)]", "values": [{"measurement": "% bound after 5 washes", "setting": "[7]", "value": 47, "unit": "%"}, {"measurement": "% bound after 10 washes", "setting": "[7]", "value": 36, "unit": "%"}, {"measurement": "% bound after 15 washes", "setting": "[7]", "value": 21, "unit": "%"}]}
